How the values were obtained:
HCC1937 [1] = experiment: drug sensitivity score (DSS), CellTox Green (DSS (AUC-based score)); higher = stronger drug effect (viability inhibition or cytotoxicity); extreme values may be limits of the assay; conditions: incubation time: 72 h
Procedure, shortened: (§1)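 Compound was dispensed into 384-well plates at 5 concentrations in 10-fold steps spanning a 10,000-fold range chosen for each compound, and 20 µl of breast cancer cell suspension was added before 72 h of incubation. CellTox Green fluorescence was read at 485/520 nm, followed by CellTiter-Glo luminescence after 10 min at room temperature. Values on each plate were normalised to 0.1 % DMSO and a positive kill control. The drug sensitivity score came from the area under the fitted dose-response curve.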

CAL-85-1 [2] = experiment: as above; conditions: incubation time: 72 h
Procedure, shortened: as §1

MFM-223 = experiment: as above; conditions: incubation time: 72 h
Procedure, shortened: as §1

HCC1599 [3] = experiment: as above; conditions: incubation time: 72 h
Procedure, shortened: as §1

MDA-MB-436 [4] = experiment: as above; conditions: incubation time: 72 h
Procedure, shortened: as §1

MDA-MB-231 [5] = experiment: as above; conditions: incubation time: 72 h
Procedure, shortened: as §1

MCF-10A = experiment: as above; conditions: incubation time: 72 h
Procedure, shortened: as §1

MDA-MB-468 [6] = experiment: as above; conditions: incubation time: 72 h
Procedure, shortened: as §1

MDA-MB-468 [7] = conditions: 72 h
Procedure, shortened: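 Per-plate normalisation used 0.1 % DMSO and a positive kill control. Breast cancer cell lines (20 µl suspension) were seeded into 384-well plates containing compound at 5 concentrations in 10-fold steps across a compound-specific 10,000-fold range, incubated for 72 h, and read first for CellTox Green fluorescence (485/520 nm), then for CellTiter-Glo luminescence. EC50 was fitted from the dose-response curves and censored at the top concentration.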

HCC1937 [8] = experiment: normalised viability (% of control), CellTiter-Blue; higher = more viable cells (about 100 = DMSO control); conditions: incubation time: 72 h
Procedure, shortened: (§2)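 The reported quantity is normalised viability at a single listed concentration of the series. Compound in 5 µl medium was pre-dispensed into 384-well plates and 20 µl of breast cancer cell suspension was added for 72 h. A 2 h, 37 °C CellTiter-Blue step (2.5 µl) preceded fluorescence reading at 560/590 nm, and plates were normalised to vehicle (100) and a positive kill control (0).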

HDQ-P1 = experiment: as above; conditions: incubation time: 72 h
Procedure, shortened: as §2

Hs578T = experiment: as above; conditions: incubation time: 72 h
Procedure, shortened: as §2

SK-BR-3 = experiment: as above; conditions: incubation time: 72 h
Procedure, shortened: as §2

CAL-148 = experiment: as above; conditions: incubation time: 72 h
Procedure, shortened: as §2

DU-4475 = experiment: as above; conditions: incubation time: 72 h
Procedure, shortened: as §2

MDA-MB-453 = experiment: as above; conditions: incubation time: 72 h
Procedure, shortened: as §2

CAL-85-1 [9] = experiment: as above; conditions: incubation time: 72 h
Procedure, shortened: as §2

HCC1143 = experiment: as above; conditions: incubation time: 72 h
Procedure, shortened: as §2

CAL-120 = experiment: as above; conditions: incubation time: 72 h
Procedure, shortened: as §2

HCC1599 [10] = experiment: as above; conditions: incubation time: 72 h
Procedure, shortened: as §2

MDA-MB-436 [11] = experiment: as above; conditions: incubation time: 72 h
Procedure, shortened: as §2

MDA-MB-231 [12] = experiment: as above; conditions: incubation time: 72 h
Procedure, shortened: as §2

MDA-MB-468 [13] = experiment: as above; conditions: incubation time: 72 h
Procedure, shortened: as §2

CNC(=O)c1cc(Oc2ccc(NC(=O)Nc3ccc(Cl)c(C(F)(F)F)c3)c(F)c2)ccn1 [Regorafenib]
Conditions	EC50, CellTiter-Glo [µM]	drug sensitivity score
CAL-85-1 [2]	–	0
HCC1599 [3]	–	0
HCC1937 [1]	–	3.47
MCF-10A	–	0
MDA-MB-231 [5]	–	0
MDA-MB-436 [4]	–	0
MDA-MB-468 [6]	–	0
MDA-MB-468 [7]	6.34	–
MFM-223	–	0

normalised viability [%]
Conditions	3 nM	10 nM	30 nM	100 nM	1000 nM	10000 nM
CAL-85-1 [9]	84.7	–	89.1	88	–	–
CAL-120	–	89.4	–	–	102	46
CAL-148	88	–	90.2	95.3	–	–
DU-4475	114	–	100	120	–	–
HCC1143	–	76.8	–	–	77.8	75.4
HCC1599 [10]	–	100	–	–	107	56.3
HCC1937 [8]	–	94.9	–	–	90.3	35.1
HDQ-P1	101	–	109	100	–	–
Hs578T	–	96.4	–	–	90.7	38.3
MDA-MB-231 [12]	–	90.5	–	–	68.1	31.7
MDA-MB-436 [11]	–	115	–	–	102	65.2
MDA-MB-453	102	–	109	101	–	–
MDA-MB-468 [13]	–	111	–	–	116	34.5
SK-BR-3	–	93.5	–	–	95.8	72.2

COC(=O)c1ccc2c(c1)NC(=O)/C2=C(\Nc1ccc(N(C)C(=O)CN2CCN(C)CC2)cc1)c1ccccc1 [Nintedanib]
Conditions	EC50, CellTiter-Glo [µM]	drug sensitivity score
CAL-85-1 [2]	–	0
HCC1599 [3]	–	0
HCC1937 [1]	–	7.85
MCF-10A	–	1.89
MDA-MB-231 [5]	–	7.47
MDA-MB-436 [4]	–	1.22
MDA-MB-468 [6]	–	2.7
MDA-MB-468 [7]	3.36	–
MFM-223	–	0

CC(C)C[C@@H](C(=O)N[C@H](C(=O)OC1CCCC1)c1ccccc1)[C@H](O)C(=O)NO [Tosedostat]
Conditions	EC50, CellTiter-Glo [µM]	drug sensitivity score
CAL-85-1 [2]	–	21.8
HCC1599 [3]	–	0
HCC1937 [1]	–	0
MCF-10A	–	0
MDA-MB-231 [5]	–	26.6
MDA-MB-436 [4]	–	10.1
MDA-MB-468 [6]	–	20.1
MDA-MB-468 [7]	0.0756	–
MFM-223	–	0

normalised viability [%]
Conditions	3 nM	10 nM	30 nM	100 nM	1000 nM	10000 nM
CAL-85-1 [9]	104	–	97.8	90.8	–	–
CAL-120	–	82.4	–	–	65.4	55
CAL-148	100	–	96.3	81.2	–	–
DU-4475	95.7	–	98.6	68	–	–
HCC1143	–	86.3	–	–	63.8	61.1
HCC1599 [10]	–	96.5	–	–	81.6	106
HCC1937 [8]	–	83.6	–	–	36.8	44.5
HDQ-P1	116	–	100	111	–	–
Hs578T	–	96.9	–	–	86	70
MDA-MB-231 [12]	–	105	–	–	53.9	47.1
MDA-MB-436 [11]	–	92.4	–	–	73.1	75.3
MDA-MB-453	119	–	101	60.4	–	–
MDA-MB-468 [13]	–	91.5	–	–	55.5	54.2
SK-BR-3	–	96	–	–	85.7	63.4

From the supplement of paper PMC4862054
